Assay results as given in PMC8303187, “Anti-Inflammatory Effects of Compounds from Cudrania tricuspidata in HaCaT Human Keratinocytes” (International Journal of Molecular Sciences, 2021).

What was measured:
[1] = tested on: IL-8 production in TNF-α + IFN-γ-treated HaCaT cells; test: IL-8 production in TNF-α + IFN-γ-treated HaCaT cells (ELISA); assay type: cell-based, human; settings: for IL-8 production: HaCaT cells pre-treated 3 h, then TNF-α + IFN-γ 24 h, result in words; for IC50: Homo sapiens, HaCaT cells pre-incubated with compound 3 h, then TNF-α + IFN-γ (20 ng/mL) 24 h, ELISA
Description: Next, the effect of the 16 compounds from C. tricuspidata on IL-8 production in HaCaT cells were determined. Briefly, HaCaT cells were pre-incubated with different concentrations of the 16 compounds for 3 h. Thereafter, the cells were subjected to TNF-α + IFN-γ stimulation for 24 h. […] Compound 2, with its flavanone skeletons, has been studied for its cyclooxygenase and tyrosinase inhibitory effects. In a previous study, compound 2 altered the anti-neuroinflammatory response in microglia. Compound 6, a prenylated flavanone, has been reported to have apoptotic effects on A375.S2 melanoma cells and to lead to the induction of apoptotic cell death in KM12, Caco-2, HT29, HCC2998, HCT116, and SW48 cell lines. […] This is the first report on the biological action of compounds 2, 6, 12, 13, 4, and 14 on the inhibitory effects of skin inflammatory factors in skin HaCaT cells. Therefore, further mechanism studies of these six compounds in HaCaT cells were conducted.
(§1) The cytokines and chemokines in IL-6, IL-8, CCL17 (TARC), and CCL5 (RANTES) HaCaT cells were detected using an enzyme-linked immunosorbent assay. The levels of these cytokines and chemokines were measured using commercial ELISA kits (BioLegend, San Diego, CA, USA), according to the manufacturer’s instructions.
Figure S3. Effects of the 16 compounds from C. tricuspidata on IL-8 (A, B, and C) production in TNF-α+IFN-γ-treated HaCaT cells. The cells were pre-treated with the indicated concentrations of the C. tricuspidata compounds for 3 h, and then stimulated with TNF-α+IFN-γ (20 ng/mL) for 24 h. […] levels were determined as described in the Materials and Methods section. Data are expressed as the mean ± standard deviation of three experiments. *p < 0.05, **p < 0.01, and ***p < 0.001 compared with TNF- […]
(1 picture or pasted object on this page, not shown here)

[2] = tested on: IκBα phosphorylation in HaCaT cells; test: Phosphorylation of IκBα in TNF-α + IFN-γ-treated HaCaT cells (Western blotting); assay type: cell-based, human; settings: HaCaT cells pretreated 3 h, then TNF-α + IFN-γ (20 ng/mL) 10 min; Western blot
From the text: (§2) The activation of NF-κB by TNF-α and/or IFN-γ results from high levels of IκB phosphorylation and the degradation of IκB in keratinocytes. NF-κB–mediated inflammation is a significant component of innate immunity and seems to be a final common pathway for the aggravation of the inflammatory response to stimuli in immune diseases of the skin [56]. To determine the potential mechanisms of the inhibition of TNF-α + IFN-γ-induced pro-inflammatory enzyme and the mediator levels by the six compounds from C. tricuspidata, their effects on the phosphorylation and degradation of cytoplasmic IκBα and on p65 translocation to the nucleus were investigated. […] In addition, compounds 13, 4, and 14 inhibited the phosphorylation of IκBα (Figure 5C,D). When HaCaT cells were exposed to TNF-α + IFN-γ, NF-κB p65 translocated from the cytoplasm to the nucleus.
(§3) Figure 5 Effects of the six compounds from C. tricuspidata on the degradation of IκB-α (A,B), the phosphorylation of IκBα (C,D), and the translocation of NF-κB p65 to the nucleus (E,F) in HaCaT cells. Cells were pretreated with the six compounds from C. tricuspidata at the indicated concentrations for 3 h and stimulated with TNF-α + IFN-γ (20 ng/mL) for 10 min. IκBα, p-IκBα, and NF-κB p65 were analyzed using Western blotting, as described in the Materials and Methods section. Representative blots from four independent experiments are presented. The immunoblots were quantified using ImageJ software. The band intensity was normalized to that of actin or anti-proliferating cell nuclear antigen (PCNA). * p < 0.05, ** p < 0.01, *** p < 0.001 compared with TNF-α + IFN-γ only.
Cells were harvested and pelleted via centrifugation at 200× g for 3 min, washed with PBS, and lysed in 20 mM Tris-HCl buffer (pH 7.4) containing a protease inhibitor mixture (0.1 mM phenylmethanesulfonyl fluoride, 5 mg/mL aprotinin, 5 mg/mL pepstatin A, and 1 mg/mL chymostatin). The protein concentration was determined using a protein assay dye reagent concentrate (#5000006; Bio-Rad Laboratories, Hercules, CA, USA). […]

[3] = tested on: NF-κB p65 translocation to the nucleus in HaCaT cells; test: NF-κB p65 translocation to the nucleus in TNF-α + IFN-γ-treated HaCaT cells (Western blotting); assay type: cell-based, human; settings: HaCaT cells pretreated 3 h, then TNF-α + IFN-γ (20 ng/mL) 10 min; Western blot
From the text: as §2, §3
(§4) Cells were harvested and pelleted via centrifugation at 200× g for 3 min, washed with PBS, and lysed in 20 mM Tris-HCl buffer (pH 7.4) containing a protease inhibitor mixture (0.1 mM phenylmethanesulfonyl fluoride, 5 mg/mL aprotinin, 5 mg/mL pepstatin A, and 1 mg/mL chymostatin). The protein concentration was determined using a protein assay dye reagent concentrate (#5000006; Bio-Rad Laboratories, Hercules, CA, USA). A total of 30 micrograms of protein from each sample was resolved using 7.5% and 12% sodium dodecyl sulfate-polyacrylamide gel electrophoresis. Thereafter, the proteins were electrophoretically transferred onto Hybond enhanced chemiluminescence (ECL) nitrocellulose membranes (Bio-Rad Laboratories). The membranes were blocked with 5% skimmed milk, and sequentially incubated with the relevant primary antibody and horseradish peroxidase-conjugated secondary antibody, prior to ECL detection (Pierce Biotechnology, Rockford, IL, USA).
(§5) HaCaT cells were homogenized in PER-Mammalian Protein Extraction Buffer (1:20, w:v) (Pierce Biotechnology, Rockford, IL, USA) containing freshly added protease inhibitor cocktail I (EMD Biosciences, San Diego, CA, USA) and 1 mM phenylmethanesulfonyl fluoride. The cytosolic fractions were prepared using centrifugation at 16,000× g for 5 min at 4 °C, while the nuclear and cytoplasmic cell extracts were prepared using NE-PER nuclear and cytoplasmic extraction reagents, respectively (Pierce Biotechnology, Rockford, IL, USA).

HaCaT cells = test: Cell Counting Kit (CCK)-8 cell viability / cytotoxicity assay; settings: CCK-8 assay, 24 h, concentration values that did not result in cytotoxicity
Description: The cytotoxicity of the 16 compounds was evaluated using a Cell Counting Kit (CCK)-8 assay on HaCaT cells.
To determine the viability of HaCaT cells, these were maintained at 2 × 10^4 cells/well, treated with the test compounds in the presence or absence of glutamate (5 mM), and cultured for 24 h. Subsequently, a CCK8 assay (Dojindo Laboratories, Kumamoto, Japan) was performed and the cells were incubated for 1 h. The absorbance was then measured at 450 nm.

[4] = tested on: IκBα degradation in HaCaT cells; test: Degradation of cytoplasmic IκBα in TNF-α + IFN-γ-treated HaCaT cells (Western blotting); assay type: cell-based, human; settings: HaCaT cells pretreated 3 h, then TNF-α + IFN-γ (20 ng/mL) 10 min; Western blot
From the text: as §2, §3, §4, §5

[5] = tested on: IL-6 production in TNF-α + IFN-γ-treated HaCaT cells; test: IL-6 production in TNF-α + IFN-γ-treated HaCaT cells (ELISA); assay type: cell-based, human; settings: for IL-6 production: HaCaT cells pre-treated 3 h, then TNF-α + IFN-γ 24 h, result in words; for IC50: Homo sapiens, HaCaT cells pre-incubated with compound 3 h, then TNF-α + IFN-γ (20 ng/mL) 24 h, ELISA
From the text: The skin consists of two basic layers: the epidermis and dermis. The epidermis is mainly composed of keratinocytes. Pro-inflammatory cytokines are known to play an important role in the immune response in keratinocytes. Previous studies have reported the roles of TNF-α and IFN-γ in inducing NF-κB activation, which upregulates the production of IL-6 and IL-8 [25]. […] Accordingly, the effect of the 16 compounds from C. tricuspidata on IL-6 production in TNF-α + IFN-γ-treated HaCaT cells were determined. Briefly, HaCaT cells were pre-incubated with different concentrations of the 16 compounds for 3 h, and then stimulated with TNF-α + IFN-γ for 24 h.
as §1
Figure S2. Effects of the 16 compounds from C. tricuspidata on IL-6 production in TNF-α+IFN-γ-treated HaCaT cells (A, B, and C). Cells were pre-treated with the indicated concentrations of the 16 compounds from C. tricuspidata for 3 h and then stimulated with TNF-α+IFN-γ (20 ng/mL) for 24 h. IL-6 levels were determined as described in the Materials and Methods section. The results are presented as the mean ± standard deviation of three experiments. *p < 0.05, **p < 0.01, and ***p < 0.001 compared with TNF-

| SMILES | IL-8 production [1] | IC50 [1] | phosphorylation of IκBα [2] | NF-κB p65 translocation to the nucleus [3] | Cytotoxicity (HaCaT cells) | degradation of IκBα in the cytoplasm [4] | IL-6 production [5] | IC50 [5] |
| --- | --- | --- | --- | --- | --- | --- | --- | --- |
| CC(C)=CCc1c(O)cc2c(c1O)C(=O)C[C@@H](c1ccc(O)cc1O)O2 [Compound 4, cudraflavanone B] | decreased | 9.88 ± 3.22 µM | inhibited | significantly inhibited | >20 µM | inhibit | significantly decreased | > 20 µM |
| CC(C)=CCc1c(O)cc2oc(-c3ccc(O)cc3O)c(CC=C(C)C)c(=O)c2c1O [Compound 6, cudraflavone C] | decreased | 2.16 ± 0.5 µM | – | significantly inhibited | >5 µM | inhibit | significantly decreased | 2.78 ± 0.75 µM |
| C=CC(C)(C)c1c(OC)cc2oc3cc(O)c(O)cc3c(=O)c2c1O [Compound 13, 1,6,7-trihydroxy-2-(1,1-dimethyl-2-propenyl)-3-methoxyxanthone] | decreased | 3.87 ± 0.96 µM | inhibited | no significant effect | >40 µM | inhibit | significantly decreased | 9.69 ± 2.15 µM |
| C=CC(C)(C)c1c(O)cc(O)c2c(=O)c3cc(O)c(O)cc3oc12 [Compound 14, cudratricusxanthone L] | decreased | 3.7 ± 0.7 µM | inhibited | significantly inhibited | >20 µM | inhibit | significantly decreased | 9.86 ± 0.92 µM |
